According to patent US5502166A, “NMDH receptor proteins and genes encoding the same” (Mitsubishi Chemical Corporation, priority 1992, dated 1996):
pEC50: −log10 of the molar value. Read-outs that look alike come from different tables or passages of the source.

Legend:
[1] = tested on: ε1/.xi.1, ε2/.xi.1, ε3/.xi.1 and ε4/.xi.1 heteromeric NMDA receptor channels; test: Comparison of ε1/, ε2/, ε3/ and ε4/.xi.1 heteromeric channels in Xenopus oocytes; assay type: cell-based, mouse
Description: (§6) The oocytes used were obtained from mature female Xenopus and separated into one oocyte in a Barth medium by using sharp tweezers and scissors. The concentration of the mRNAs was 0.1 μg/μl and 10 μl thereof was injected into about 100 oocytes in an amount of 50 to 100 nl per one oocyte. The mRNAs were injected under a microscope by using a capillary and a micromanipulator. After the injection, the oocytes were incubated at 19° C. for one day in a Barth medium containing 0.1 mg/ml of gentamicin ("The Control of Gene Expression in Animal Development, Clarendon, Oxford (1974)). Then, the oocytes were allowed to stand in 1 mg/ml of collagenase at room temperature for 1 hour, and then extracellular skins were removed under a microscope by using sharp tweezers. These oocytes were returned to the Barth medium containing 0.1 mg/ml of gentamicin, incubated again at 19° C. for one day and then used for an electrophysiological test.
(§7) The electrophysiological test was carried out by a conventional micropipet voltage clamp method. […] In the present experiment system, flow of these ions were detected, and opening and closing of the ion channel were observed. […]

[2] = biological target: ε4/.zeta.1 heteromeric NMDA receptor channel (Mus musculus, UniProt P35438+Q03391); test: Electrophysiological test in Xenopus oocytes expressing ε4 and .zeta.1 subunits; assay type: cell-based
Description: FIGS. 1(a) and 1(b) show functional expression of ε4/.zeta.1 heteromeric NMDA receptor channel cDNAs in frog oocytes. Current responses are measured at -70 mV membrane potential in normal Ringer's solution. […] FIG. 1(b) represent effects of 500 μM D-2-amino-5-phosphonovalerate (APV) (Glu/Gly +APV) and 100 μM 7-chlorokynurenate (7 CK) (Glu/Gly +7 CK) on a current response of the ε4/.zeta.1 heteromeric channel to Glu/Gly, respectively.
Current responses are measured at -70 mV membrane potential in a Ba^2+ -Ringer's solution.
Then, by using the pSPGR ε4 plasmid cut by EcoRI as a template and using SP6 RNA polymerase, ε4-specific mRNAs were synthesized in vitro. Transcription was carried out in the same manner as in Example 1.

[3] = biological target: ε3/.zeta.1 heteromeric NMDA receptor channel (Mus musculus, UniProt P35438+Q01098); test: Electrophysiological test in Xenopus oocytes expressing ε3 and .zeta.1 subunits; assay type: cell-based; conditions: for response to kainate / AMPA: 100 μM
Description: (§1) Then, by using the pBKSA ε2 cut by NotI and the pBKSA ε3 cut by XbaI as molds and using T3 RNA polymerase produced by BRL Co., ε2-specific mRNAs and ε3-specific mRNAs were synthesized in vitro. Transcription was carried out in the same manner as in Example 1.
(§2) Effects of the competitive antagonist were examined with 10-fold concentration of the antagonist concentration used when examining the EC50 values.

[4] = biological target: T1, ε2/.zeta.1 heteromeric NMDA receptor channel (Mus musculus, UniProt P35438+Q01097); test: Electrophysiological test in Xenopus oocytes expressing ε2 and .zeta.1 subunits; assay type: cell-based; conditions: for response to kainate / AMPA: 100 μM
T1 construct: expressed in transfected cells; host or cells: Xenopus oocytes injected with in vitro transcribed mRNAs
Description: as §1, §2
Transcription was carried out in the same manner as in Example 1.

[5] = tested on: ε1/.xi.1, ε2/.xi.1 and ε3/.xi.1 heteromeric NMDA receptor channels; test: Comparison of ε1/, ε2/ and ε3/.xi.1 heteromeric channels in Xenopus oocytes; assay type: cell-based, mouse; conditions: 10-fold concentration used when examining EC50
Text: as §2

[6] = tested on: ε2/.zeta.1-N598Q NMDA receptor channel; test: Electrophysiological test in Xenopus oocytes expressing modified ε2/.zeta.1-N598Q channel; assay type: cell-based, mouse
Text: (§3) In the figures, FIGS. 4(a), 4(b), 4(c) and 4(d) represent an ε2/.zeta.1 NMDA receptor channel, an ε2/.zeta.1-N598Q (a modified glutamate receptor shown in Sequence ID No. 9 of the sequence table) NMDA receptor channel, an ε2-N589Q (a modified glutamate receptor shown in Sequence ID No. 8 of the sequence table)/.zeta.l NMDA receptor channel and an ε2-N589Q/.zeta.1-N598Q NMDA receptor channel, respectively.
(§4) FIGS. 5(a) to 5(d) show current-voltage relationships of wild type and mutant heteromeric channels in the presence of 1 mM Mg^2+ ( ) and in the absence thereof (.smallcircle.). In the figures, FIGS. 5(a) , 5(b) , 5(c) and 5(d) represent an ε2/.zeta.1 NMDA receptor channel, an ε2/.zeta.1-N598Q NMDA receptor channel, an ε2-N589Q/.zeta.1 NMDA receptor channel and an ε2-N589Q/.zeta.1-N598Q NMDA receptor channel, respectively.
(§5) In the figure, .largecircle., , , .quadrature. and represent an ε2/.zeta.1 NMDA receptor channel, an ε2/.zeta.1-N598Q NMDA receptor channel, an ε2-N589Q/.zeta.1 NMDA receptor channel, an ε2-N589Q/.zeta.1-N598Q NMDA receptor channel and an ε2/.zeta.1-ZAZ (a mutant glutamate receptor shown in Sequence ID No. 10 of the sequence table) NMDA receptor channel, respectively. […]

[7] = tested on: ε2-N589Q/.zeta.1-N598Q NMDA receptor channel; test: Electrophysiological test in Xenopus oocytes expressing modified ε2-N589Q/.zeta.1-N598Q channel; assay type: cell-based, mouse
Text: as §3, §4, §5

[8] = tested on: ε2-N589Q/.zeta.1 NMDA receptor channel; test: Electrophysiological test in Xenopus oocytes expressing modified ε2-N589Q/.zeta.1 channel; assay type: cell-based, mouse
Text: as §3, §4, §5

[9] = biological target: T2, ε1/.zeta.1 heteromeric NMDA receptor channel (Mus musculus, UniProt P35436+P35438); test: Electrophysiological test (micropipet voltage clamp) in Xenopus oocytes expressing ε1 and .zeta.1 subunits; assay type: cell-based
T2 construct: expressed in transfected cells; host or cells: Xenopus oocytes injected with in vitro transcribed mRNAs
Text: as §2

ε2 subunit = test: Electrophysiological test in Xenopus oocytes expressing only the ε2 subunit; assay type: cell-based, mouse; conditions: ε2 mRNA alone
Description: as §6
(§8) The electrophysiological test was carried out by a conventional micropipet voltage clamp method. Oocytes generally have a membrane potential of about -30 to -40 mV. […] In the present experiment system, flow of these ions were detected, and opening and closing of the ion channel were observed. […]

ε3 subunit = test: Electrophysiological test in Xenopus oocytes expressing only the ε3 subunit; assay type: cell-based, mouse; conditions: ε3 mRNA alone
Description: as §6, §8

[10] = biological target: .zeta.1 NMDA type receptor subunit (Mus musculus, UniProt P35438); test: Electrophysiological test in Xenopus oocytes expressing only the .zeta.1 subunit; conditions: 100 μM NMDA and 10 μM glycine, n=7
Description: Then, by using the pBKSA ε1 cut by NotI as a template and using T3 RNA polymerase produced by BRL Co., ε1-specific mRNAs were synthesized in vitro. Transcription was carried out in a solution containing ATP, TTP and CTP at a concentration of 0.5 mM, respectively and 0.1 mM GTP in the presence of 0.5 mM dinucleotide 7mGpppG having a cap structure (in which 2 Gs were linked at 5' and 7-site of one guanine was methylated, produced by P-L Biochemicals Co.). One or both of ε1 subunit-specific mRNAs and .zeta.1.NMDA type glutamate receptor subunit-specific mRNAs (mRNAs derived from mice, coding an amino acid sequence different in the 213rd (Glu→Asp) and the 460th (Ile→Val) from the N terminal end from the amino acid sequence which is coded by cDNA.-NMDA R1 of a rat-NMDA type glutamate receptor cloned by Nakanishi et al. ("Nature", 354, pp. 31 to 37 (1991))) were injected into Xenopus oocytes.
as §6
The electrophysiological test was carried out by a conventional micropipet voltage clamp method. […] First, while a frog standard Ringer's solution (115 mM NaCl, 2.5 mM KCl, 1.8 mM CaCl2 and 10 mM HEPES-NaOH (pH: 7.2)) was flown in a chamber, 2 glass microelectrodes charged with 3M KCl were stuck in the oocytes, and the membrane potential was fixed to -70 mV. In these oocytes, an agonist (NMDA) is linked to a glutamate receptor expressed on a cell membrane and an ion channel is opened, the oocytes have an action of returning membrane potential to an original value, whereby inflow and outflow of ions are caused. In the present experiment system, flow of these ions were detected, and opening and closing of the ion channel were observed.
The ε1 subunit-specific mRNAs synthesized from the cloned cDNAs in vitro were injected into the Xenopus oocytes. […]

ε1 subunit = test: Electrophysiological test in Xenopus oocytes expressing only the ε1 subunit; assay type: cell-based, mouse; conditions: 10 μM L-glutamate and 100 μM NMDA, even in the presence of 10 μM glycine
Description: One or both of ε1 subunit-specific mRNAs and .zeta.1.NMDA type glutamate receptor subunit-specific mRNAs (mRNAs derived from mice, coding an amino acid sequence different in the 213rd (Glu→Asp) and the 460th (Ile→Val) from the N terminal end from the amino acid sequence which is coded by cDNA.-NMDA R1 of a rat-NMDA type glutamate receptor cloned by Nakanishi et al. ("Nature", 354, pp. 31 to 37 (1991))) were injected into Xenopus oocytes.
The oocytes used were obtained from mature female Xenopus and separated into one oocyte in a Barth medium by using sharp tweezers and scissors. The concentration of the mRNAs was 0.1 μg/μl and 10 μl thereof was injected into about 100 oocytes in an amount of 50 to 100 nl per one oocyte. The mRNAs were injected under a microscope by using a capillary and a micromanipulator. After the injection, the oocytes were incubated at 19° C. for one day in a Barth medium containing 0.1 mg/ml of gentamicin ("The Control of Gene Expression in Animal Development, Clarendon, Oxford (1974)). […]
as §7

[11] = (+)-MK-801, continuous application
[12] = Ba^2+ Ringer's solution, dose-reaction curve

T1 sequence (Q01097 27-1482, other chains not shown): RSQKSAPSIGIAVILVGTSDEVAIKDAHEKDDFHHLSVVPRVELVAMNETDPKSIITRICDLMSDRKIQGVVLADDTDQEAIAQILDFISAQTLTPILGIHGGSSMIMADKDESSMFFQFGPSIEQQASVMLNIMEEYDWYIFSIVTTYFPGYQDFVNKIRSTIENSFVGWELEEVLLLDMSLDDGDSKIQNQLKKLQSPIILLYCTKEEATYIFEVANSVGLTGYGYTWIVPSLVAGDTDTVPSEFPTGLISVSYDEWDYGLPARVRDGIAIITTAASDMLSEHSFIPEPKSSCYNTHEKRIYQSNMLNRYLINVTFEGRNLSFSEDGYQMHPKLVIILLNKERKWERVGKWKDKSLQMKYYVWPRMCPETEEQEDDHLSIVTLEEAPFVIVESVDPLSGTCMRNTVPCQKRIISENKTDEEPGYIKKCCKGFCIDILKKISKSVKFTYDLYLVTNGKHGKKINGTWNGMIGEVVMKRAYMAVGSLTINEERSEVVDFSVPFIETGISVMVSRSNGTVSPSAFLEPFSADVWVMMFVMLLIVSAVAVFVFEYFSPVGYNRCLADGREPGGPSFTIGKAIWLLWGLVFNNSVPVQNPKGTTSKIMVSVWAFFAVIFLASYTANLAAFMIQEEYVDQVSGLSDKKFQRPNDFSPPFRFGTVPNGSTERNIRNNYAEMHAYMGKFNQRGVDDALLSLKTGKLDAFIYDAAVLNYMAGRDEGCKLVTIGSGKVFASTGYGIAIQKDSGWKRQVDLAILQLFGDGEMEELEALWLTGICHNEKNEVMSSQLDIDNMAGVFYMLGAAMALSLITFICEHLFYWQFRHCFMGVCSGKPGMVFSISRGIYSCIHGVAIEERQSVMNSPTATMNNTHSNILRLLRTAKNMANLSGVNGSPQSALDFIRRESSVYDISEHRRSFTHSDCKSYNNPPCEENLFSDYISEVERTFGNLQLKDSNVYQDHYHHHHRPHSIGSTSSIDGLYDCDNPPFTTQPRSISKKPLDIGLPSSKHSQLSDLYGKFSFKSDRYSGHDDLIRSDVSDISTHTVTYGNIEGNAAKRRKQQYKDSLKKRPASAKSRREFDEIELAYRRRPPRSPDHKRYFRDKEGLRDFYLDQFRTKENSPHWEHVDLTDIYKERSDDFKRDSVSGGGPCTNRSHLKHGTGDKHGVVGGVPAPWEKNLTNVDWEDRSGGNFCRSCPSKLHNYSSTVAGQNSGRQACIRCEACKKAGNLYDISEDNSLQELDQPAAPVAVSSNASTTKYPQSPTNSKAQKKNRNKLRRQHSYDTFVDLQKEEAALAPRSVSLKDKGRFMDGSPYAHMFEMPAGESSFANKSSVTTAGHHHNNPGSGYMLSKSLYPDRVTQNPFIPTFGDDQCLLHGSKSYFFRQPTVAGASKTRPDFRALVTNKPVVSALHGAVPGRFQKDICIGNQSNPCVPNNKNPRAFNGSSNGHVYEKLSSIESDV
T2 sequence (P35436 23-1464 S384R, other chains not shown): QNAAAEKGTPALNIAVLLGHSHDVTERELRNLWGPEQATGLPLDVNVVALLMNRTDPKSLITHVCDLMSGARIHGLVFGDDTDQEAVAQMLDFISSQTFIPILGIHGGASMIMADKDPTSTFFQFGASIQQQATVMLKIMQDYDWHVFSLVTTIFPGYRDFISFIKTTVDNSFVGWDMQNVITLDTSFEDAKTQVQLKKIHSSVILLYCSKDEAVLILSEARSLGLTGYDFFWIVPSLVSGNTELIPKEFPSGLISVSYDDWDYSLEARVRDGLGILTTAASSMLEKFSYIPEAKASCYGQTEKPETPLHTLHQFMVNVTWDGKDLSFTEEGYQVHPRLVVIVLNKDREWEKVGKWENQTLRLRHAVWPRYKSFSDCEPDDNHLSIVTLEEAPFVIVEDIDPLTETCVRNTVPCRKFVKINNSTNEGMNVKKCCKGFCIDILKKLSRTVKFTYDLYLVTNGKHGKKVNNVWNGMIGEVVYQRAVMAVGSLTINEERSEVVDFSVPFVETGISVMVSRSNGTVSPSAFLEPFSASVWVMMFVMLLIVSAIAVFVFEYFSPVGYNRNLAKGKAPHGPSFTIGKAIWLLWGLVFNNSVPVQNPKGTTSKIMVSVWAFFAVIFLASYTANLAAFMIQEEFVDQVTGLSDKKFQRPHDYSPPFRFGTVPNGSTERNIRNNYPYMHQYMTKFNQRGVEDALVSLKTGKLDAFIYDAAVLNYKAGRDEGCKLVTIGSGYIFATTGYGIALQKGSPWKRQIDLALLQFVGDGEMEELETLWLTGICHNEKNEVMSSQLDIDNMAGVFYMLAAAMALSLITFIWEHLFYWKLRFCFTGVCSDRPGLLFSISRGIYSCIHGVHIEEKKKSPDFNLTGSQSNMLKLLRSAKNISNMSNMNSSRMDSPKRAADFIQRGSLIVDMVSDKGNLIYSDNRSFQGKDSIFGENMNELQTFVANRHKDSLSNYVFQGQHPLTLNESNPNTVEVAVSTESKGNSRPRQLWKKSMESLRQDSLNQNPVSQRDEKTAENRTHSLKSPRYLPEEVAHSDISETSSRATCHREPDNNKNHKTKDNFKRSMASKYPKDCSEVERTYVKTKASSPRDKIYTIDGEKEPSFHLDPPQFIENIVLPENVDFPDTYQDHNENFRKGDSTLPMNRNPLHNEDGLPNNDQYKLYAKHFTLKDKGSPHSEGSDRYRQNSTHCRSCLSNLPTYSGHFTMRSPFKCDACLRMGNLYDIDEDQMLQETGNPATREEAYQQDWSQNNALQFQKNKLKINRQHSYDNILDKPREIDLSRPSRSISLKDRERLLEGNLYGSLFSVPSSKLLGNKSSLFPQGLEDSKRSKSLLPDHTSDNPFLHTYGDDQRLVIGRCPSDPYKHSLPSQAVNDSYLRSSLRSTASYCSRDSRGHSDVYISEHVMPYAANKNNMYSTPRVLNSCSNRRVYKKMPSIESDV
ε4/.zeta.1 heteromeric NMDA receptor channel, sequence (Q03391 28-1323, other chains not shown): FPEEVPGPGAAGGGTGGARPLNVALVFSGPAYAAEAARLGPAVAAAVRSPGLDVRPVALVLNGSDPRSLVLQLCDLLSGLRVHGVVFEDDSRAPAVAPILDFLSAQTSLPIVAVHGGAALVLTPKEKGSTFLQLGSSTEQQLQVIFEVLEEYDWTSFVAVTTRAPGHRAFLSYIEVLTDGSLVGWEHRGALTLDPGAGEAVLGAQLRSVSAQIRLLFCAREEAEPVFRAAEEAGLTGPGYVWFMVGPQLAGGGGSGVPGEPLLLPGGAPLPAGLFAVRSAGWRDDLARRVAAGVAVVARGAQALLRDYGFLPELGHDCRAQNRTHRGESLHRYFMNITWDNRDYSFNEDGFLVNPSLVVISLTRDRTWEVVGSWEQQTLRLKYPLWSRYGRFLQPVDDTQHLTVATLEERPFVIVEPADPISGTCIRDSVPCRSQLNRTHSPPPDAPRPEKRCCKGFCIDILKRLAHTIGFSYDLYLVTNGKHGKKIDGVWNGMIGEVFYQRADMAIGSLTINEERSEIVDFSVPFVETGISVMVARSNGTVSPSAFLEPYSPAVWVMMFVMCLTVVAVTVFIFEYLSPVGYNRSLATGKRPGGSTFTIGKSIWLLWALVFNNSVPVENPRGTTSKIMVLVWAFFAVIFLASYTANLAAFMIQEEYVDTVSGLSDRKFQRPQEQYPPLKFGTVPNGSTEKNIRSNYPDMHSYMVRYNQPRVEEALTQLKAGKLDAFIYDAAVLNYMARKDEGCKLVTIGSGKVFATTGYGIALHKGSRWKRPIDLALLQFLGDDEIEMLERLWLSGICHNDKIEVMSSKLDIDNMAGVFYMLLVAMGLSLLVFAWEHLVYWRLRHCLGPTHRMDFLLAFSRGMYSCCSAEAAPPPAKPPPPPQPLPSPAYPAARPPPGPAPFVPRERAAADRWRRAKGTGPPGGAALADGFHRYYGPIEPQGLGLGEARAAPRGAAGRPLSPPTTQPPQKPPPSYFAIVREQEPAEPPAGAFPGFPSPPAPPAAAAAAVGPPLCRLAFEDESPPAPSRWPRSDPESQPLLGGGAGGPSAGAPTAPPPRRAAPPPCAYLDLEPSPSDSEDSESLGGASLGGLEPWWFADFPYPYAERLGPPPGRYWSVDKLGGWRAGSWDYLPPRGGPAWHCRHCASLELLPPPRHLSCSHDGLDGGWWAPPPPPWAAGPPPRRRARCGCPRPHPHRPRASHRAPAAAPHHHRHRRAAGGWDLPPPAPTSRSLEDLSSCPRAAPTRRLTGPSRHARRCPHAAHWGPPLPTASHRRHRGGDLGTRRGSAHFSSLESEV

**Q.** What does the source list for O=C(O)c1cc(O)c2ccc(Cl)cc2n1 [7 CK, 7-chlorokynurenate]?
**A.** order of sensitivity to competitive antagonist ([1]; 10-fold concentration of EC50 value): ε3/.xi.1>ε2/.xi.1>ε1/.xi.1=ε4/.xi.1; decrease of channel activity ([2]; 100 μM APV or 3 μM 7 CK, response to 4.7 μM L-glutamate + 0.9 μM glycine, Ba^2+ Ringer's solution, -70 mV): 34%; effect on response to 10 μM L-glutamate and 10 μM glycine ([2]; 500 μM APV or 100 μM 7 CK): suppressed; degree of inhibition ([2]; compared with other ε/.xi. channels under the same conditions): smaller than those of the other ε/.xi. channels; effect on response to 10 μM L-glutamate or 10 μM glycine alone ([3]; 100 μM APV, 30 μM 7 CK): disappeared; effect on response to 10 μM L-glutamate and 10 μM glycine ([3]; competitive antagonists, 100 μM Mg^2+, 100 μM Zn^2+, 1 μM (+)-MK-801): suppressed; effect on response to 10 μM L-glutamate and 10 μM glycine [4]: suppressed; effect on response to 10 μM L-glutamate or 10 μM glycine alone [4]: disappeared; order of strength in sensitivity to competitive antagonist [5]: ε3/.xi.1>ε2/.xi.1>ε1/.xi.1

**Q.** Which “inhibition of current response” value ([6]; 1 mM Mg^2+, 100 μM Zn^2+, 1 μM (+)-MK-801, frog standard Ringer's, -70 mV, 10 μM L-glutamate + 10 μM glycine) does the source give for C[C@]12N[C@H](Cc3ccccc31)c1ccccc12 [(+)-MK-801] here?
**A.** suppressed effectively

**Q.** And the “suppression after repetitive application” value [6, 11]?
**A.** strongly inhibited

**Q.** And the “suppression after repetitive application” value ([7]; (+)-MK-801 applied three times repeatedly)?
**A.** retained high activities

**Q.** What about the “resistance / sensitivity to inhibition” value ([7]; Mg^2+, Zn^2+, (+)-MK-801, frog standard Ringer's, -70 mV, 10 μM L-glutamate + 10 μM glycine) of the same molecule?
**A.** strong resistance

**Q.** What about the “suppression after repetitive application” value [8, 11] of the same molecule?
**A.** strongly inhibited

**Q.** What about the “sensitivity to inhibition / current response” value ([8]; Mg^2+, Zn^2+, repetitive (+)-MK-801, frog standard Ringer's, -70 mV, 10 μM L-glutamate + 10 μM glycine) of the same molecule?
**A.** showed a great current response after repetitive application of (+)-MK-801

**Q.** And the “effect on response to 10 μM L-glutamate and 10 μM glycine” value [3]?
**A.** suppressed

**Q.** What about the “effect on response to 10 μM L-glutamate and 10 μM glycine” value [4] of the same molecule?
**A.** suppressed

**Q.** And the “inhibition of current response” value [4]?
**A.** strongly inhibited

**Q.** What about the “suppression after repetitive application” value [4] of the same molecule?
**A.** suppressed almost completely

**Q.** How did the “response to kainate / AMPA” value [3] turn out when Cc1onc(O)c1CC(N)C(=O)O (centres unmarked) [AMPA] was run?
**A.** less than the measurement limit

**Q.** What about the “response to kainate / AMPA” value [4] of the same molecule?
**A.** less than the measurement limit

**Q.** With N[C@@H](CC(=O)O)C(=O)O [L-aspartic acid] as the molecule, how does the “response to agonist alone” value [4] read?
**A.** showed a response

**Q.** What does the source list for N[C@@H](CCC(=O)O)C(=O)O [L-glutamate]?
**A.** pEC50 [9]: 5.77; response of oocytes injected singly (ε2 subunit): < 1 nA; response of oocytes injected singly (ε3 subunit): < 1 nA

**Q.** What does the source list for CN[C@H](CC(=O)O)C(=O)O [NMDA, N-methyl-D-aspartic acid]?
**A.** current amplitude ([9]; 100 μM NMDA and 10 μM glycine, Ba^2+ Ringer's solution, n=7): 57±3 nA; inward current ([9]; 100 μM NMDA and 10 μM glycine, frog standard Ringer's solution, -70 mV, n=7): 175±30 nA; current amplitude ([10]; Ba^2+ Ringer's solution): 1±0.2 nA; current amplitude ([10]; Example 1, frog standard Ringer's solution, -70 mV): 6±1 nA; current amplitude ([10]; Example 2): 9±2 nA; current amplitude ([10]; Example 3): 13±2 nA; inward current ([2]; 100 μM NMDA and 10 μM glycine, frog standard Ringer's solution, -70 mV, n=8): 68±13 nA; response of oocytes injected singly (ε2 subunit): < 1 nA; inward current [3]: 89±22 nA; inward current [4]: 546±172 nA; response of oocytes injected singly (ε3 subunit): < 1 nA; reaction of injected oocytes (ε1 subunit): did not show any reaction

**Q.** NCC(=O)O [glycine] was tested. Which pEC50 ([9]; Ba^2+ Ringer's solution, dose-reaction curve, read-out: EC50) did it give?
**A.** 5.68

**Q.** And the “order of strength in affinity to agonist” value ([1]; Ba^2+ Ringer's solution)?
**A.** ε4/.xi.1>ε3/.xi.1>ε2/.xi.1

**Q.** What about the pEC50 [2] of the same molecule?
**A.** 7.05

**Q.** What about the Hill coefficient ([2]; Ba^2+ Ringer's solution, -70 mV) of the same molecule?
**A.** 1.2

**Q.** And the “response to agonist alone” value [3]?
**A.** showed a response only to 10 μM glycine

**Q.** What about the pEC50 [3, 12] of the same molecule?
**A.** 6.70

**Q.** And the “response to agonist alone” value [4]?
**A.** showed a response

**Q.** What about the pEC50 [4, 12] of the same molecule?
**A.** 6.52

**Q.** Which results are given for C=C(C)[C@H]1CN[C@H](C(=O)O)[C@H]1CC(=O)O [kainate]?
**A.** response to kainate / AMPA [3]: less than the measurement limit; response to kainate / AMPA [4]: less than the measurement limit
